Consider three compounds from patent publication EP0317873B1, “Radioiodinated benzamides and method of their use as radioimaging agents” (THE VANDERBILT UNIVERSITY, priority 1987, dated 1989).

The target of test [1] is T1, D-2 receptor (Rattus norvegicus, UniProt P61169).
T1 construct: 90 µL of the striatal membrane preparation; from tissue; host or cells: rat striatum (membrane preparation)
Description: Displacement of [3H]sulpiride binding to rat striatal membranes (receptor binding assay). Conditions: read-out: [³H]sulpiride binding IC₅₀, radioligand concentration 2.9 nM, nonspecific binding in the presence of 10 µM sulpiride, 30 min at 37°C. The method, then: (§1) Lett. 64:163-168 (1986). […] Male Sprague-Dawley rats (150-200 g) were killed by decapitation and their brains quickly removed and dissected on ice. Striata were dissected and homogenized in 40 vol of ice-cold Tris-HCl (50 mM) containing 123 mM NaCl, 5 mM KCl, 2 mM CaCl₂ and 1 mM MgCl₂ (pH 7.4) using a Brinkman Polytron. The suspension was centrifuged at 30,000 x g for 10 min at 4°C, and the pellet was resuspended in 40 vol of fresh buffer with polytron. The suspension was incubated at 37°C for 10 min, centrifuged again at 30,000 x g for 10 min (4°C) and the final pellet was resuspended with the polytron in 200 vol of ice cold buffer. Assay tubes contained 50 µM or radioligand at 2.9 nM concentration and 90 µL of the striatal membrane preparation. Nonspecific binding was determined in the presence of 10 µM(-)[¹²⁵I](S)-II. Tubes were incubated for 30 min at 37°C, poured over Whatman GF/B filters under vacuum, and the filters were rinsed three times with 4 mL of ice cold buffer. Radioactivity remaining on the filters was measured by liquid scintillation on a Quantum 9 Multichannel analyzer operating at 35% efficiency.

Test [2] has as its target T1, D-2 receptor. Briefly: Displacement of [125I](S)-II binding to rat striatal membranes (receptor binding assay). Particulars: radioligand concentration 0.46 nM, nonspecific binding in the presence of 10 µM of (S)-II, 30 min at 37°C, read-out: [¹²⁵I]-(S) II binding IC₅₀. The method, then:
as §1, with “Assay tubes contained 50 µM or radioligand at 2.9 nM concentration and 90 µL of the striatal membrane preparation.” left out

The target of test [3] is T1, D-2 receptor. Briefly: Saturation binding of [125I](S)-II to rat striatal membranes (Scatchard analysis, time course). The procedure:
Male Sprague-Dawley rats (150-200 g) were killed by decapitation and their brains quickly removed and dissected on ice. Striata were dissected and homogenized in 40 vol of ice-cold Tris-HCl (50 mM) containing 123 mM NaCl, 5 mM KCl, 2 mM CaCl₂ and 1 mM MgCl₂ (pH 7.4) using a Brinkman Polytron. The suspension was centrifuged at 30,000 x g for 10 min at 4°C, and the pellet was resuspended in 40 vol of fresh buffer with polytron. The suspension was incubated at 37°C for 10 min, centrifuged again at 30,000 x g for 10 min (4°C) and the final pellet was resuspended with the polytron in 200 vol of ice cold buffer. Assay tubes contained […] or radioligand at 2.9 nM concentration and 90 µL of the striatal membrane preparation. Nonspecific binding was determined in the presence of 10 µM(-)[¹²⁵I](S)-II. Tubes were incubated for 30 min at 37°C, poured over Whatman GF/B filters under vacuum, and the filters were rinsed three times with 4 mL of ice cold buffer. Radioactivity remaining on the filters was measured by liquid scintillation on a Quantum 9 Multichannel analyzer operating at 35% efficiency. […]

The mark [4] stands for this setting: at 37°C, rat striatal membranes.

For orientation: Kd means the free concentration of one partner at which half of the binding sites on the other are occupied at equilibrium, for simple one-to-one binding.

T1 sequence (P61169 whole entry): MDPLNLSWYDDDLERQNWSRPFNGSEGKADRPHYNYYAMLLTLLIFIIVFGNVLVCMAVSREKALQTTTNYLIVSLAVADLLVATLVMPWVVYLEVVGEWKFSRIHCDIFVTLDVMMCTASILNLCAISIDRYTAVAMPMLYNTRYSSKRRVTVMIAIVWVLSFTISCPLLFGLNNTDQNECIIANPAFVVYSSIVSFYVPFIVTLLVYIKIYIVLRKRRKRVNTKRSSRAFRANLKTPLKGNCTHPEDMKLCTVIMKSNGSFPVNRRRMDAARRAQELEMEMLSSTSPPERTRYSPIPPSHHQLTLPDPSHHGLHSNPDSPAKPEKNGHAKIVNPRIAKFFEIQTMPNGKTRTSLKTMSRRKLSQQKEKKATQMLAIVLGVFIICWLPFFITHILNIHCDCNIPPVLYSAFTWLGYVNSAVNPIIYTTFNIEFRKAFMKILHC

As to `CCN1CCC[C@@H]1CNC(=O)c1cc(I)ccc1OC` [(R)-II], the IC50 was determined as 146 nM at D-2 receptor [1] and 169 nM on D-2 receptor [2].

For the compound `CCN1CCC[C@H]1CNC(=O)c1cc(I)ccc1OC` [(S)-II, (S)-N-[(1-ethyl-2-pyrrolidinyl)methyl]-5-iodo-2-methoxybenzamide], the IC50 on D-2 receptor [2] stood at 5 nM.

In the case of `CCN1CCC[C@H]1CNC(=O)c1cc([125I])ccc1OC` [Example 1], the “maximal number of binding sites” value at D-2 receptor [3] (Scatchard analysis of the saturation isotherm, rat striatal membranes) is reported as 169 fmol/mg protein. On D-2 receptor [3] (Scatchard analysis of the saturation isotherm, single set of binding sites, rat striatal membranes), this compound had a Kd of 1 nM. Also, at D-2 receptor [3] (setting [4]), the “time binding remained stable” value was “at least 60 min” and the “time for binding to reach equilibrium” value was at most 20 min. Moreover, the “character of binding to rat striated membranes” value at D-2 receptor [3] (conditions of the receptor binding assay) was “saturable, reversible and stereospecific”.
